Results as given in ChEMBL document CHEMBL4043214, “Design, synthesis, and SAR study of 3-(benzo[d][1,3]dioxol-5-yl)-N-benzylpropanamide as novel potent synergists against fluconazole-resistant Candida albicans” (2017).

Key:
Type in all cases: functional
Candida albicans [1] = experiment: Potentiation of fluconazole-induced anti-fungal activity against fluconazole-resistant Candida albicans isolate 103 assessed as fluconazole MIC80 at 2 ug/ml by checkerboard microdilution assay
Candida albicans [2] = experiment: Potentiation of fluconazole-induced anti-fungal activity against fluconazole-resistant Candida albicans isolate 103 assessed as fluconazole MIC80 at 8 ug/ml by checkerboard microdilution assay
Candida albicans [3] = experiment: Potentiation of fluconazole-induced anti-fungal activity against fluconazole-resistant Candida albicans isolate 103 assessed as fluconazole MIC80 at 4 ug/ml by checkerboard microdilution assay
Candida albicans [4] = experiment: Potentiation of fluconazole-induced anti-fungal activity against fluconazole-resistant Candida albicans isolate 103 at 8 ug/ml by checkerboard microdilution assay
Candida albicans [5] = experiment: Potentiation of fluconazole-induced anti-fungal activity against fluconazole-resistant Candida albicans isolate 100 at 2 ug/ml by checkerboard microdilution assay
Candida albicans [6] = experiment: Synergistic anti-fungal activity against fluconazole-resistant Candida albicans isolate 100 in presence of fluconazole by two-fold dilution method
Candida albicans [7] = experiment: Anti-fungal activity against fluconazole-resistant Candida albicans isolate 103 by microbroth dilution method
Candida albicans [8] = experiment: Potentiation of fluconazole-induced anti-fungal activity against fluconazole-resistant Candida albicans isolate 100 at 4 ug/ml by checkerboard microdilution assay
Candida albicans [9] = experiment: Potentiation of fluconazole-induced anti-fungal activity against fluconazole-resistant Candida albicans isolate 103 at 4 ug/ml by checkerboard microdilution assay
Candida albicans [10] = experiment: Potentiation of fluconazole-induced anti-fungal activity against fluconazole-resistant Candida albicans isolate 100 by two-fold dilution method
Candida albicans [11] = experiment: Potentiation of fluconazole-induced anti-fungal activity against fluconazole-resistant Candida albicans isolate 100 assessed as fluconazole MIC80 at 4 ug/ml by checkerboard microdilution assay
Candida albicans [12] = experiment: Potentiation of fluconazole-induced anti-fungal activity against fluconazole-resistant Candida albicans isolate 100 assessed as fluconazole MIC80 at 1 ug/ml by checkerboard microdilution assay
Candida albicans [13] = experiment: Potentiation of fluconazole-induced anti-fungal activity against fluconazole-resistant Candida albicans isolate 100 assessed as fluconazole MIC80 at 8 ug/ml by checkerboard microdilution assay
Candida albicans [14] = experiment: Synergistic anti-fungal activity against fluconazole-resistant Candida albicans isolate 103 in presence of fluconazole by two-fold dilution method
Candida albicans [15] = experiment: Potentiation of fluconazole-induced anti-fungal activity against fluconazole-resistant Candida albicans isolate 100 at 1 ug/ml by checkerboard microdilution assay
Candida albicans [16] = experiment: Potentiation of fluconazole-induced anti-fungal activity against fluconazole-resistant Candida albicans isolate 100 at 8 ug/ml by checkerboard microdilution assay
Candida albicans [17] = experiment: Potentiation of fluconazole-induced anti-fungal activity against fluconazole-resistant Candida albicans isolate 100 assessed as fluconazole MIC80 at 2 ug/ml by checkerboard microdilution assay
Candida albicans [18] = experiment: Potentiation of fluconazole-induced anti-fungal activity against fluconazole-resistant Candida albicans isolate 103 at 2 ug/ml by checkerboard microdilution assay
Candida albicans [19] = experiment: Anti-fungal activity against fluconazole-resistant Candida albicans isolate 100 by microbroth dilution method
Candida albicans [20] = experiment: Potentiation of fluconazole-induced anti-fungal activity against fluconazole-resistant Candida albicans isolate 103 assessed as fluconazole MIC80 at 1 ug/ml by checkerboard microdilution assay
Candida albicans [21] = experiment: Potentiation of fluconazole-induced anti-fungal activity against fluconazole-resistant Candida albicans isolate 103 by two-fold dilution method
Candida albicans [22] = experiment: Potentiation of fluconazole-induced anti-fungal activity against fluconazole-resistant Candida albicans isolate 103 at 1 ug/ml by checkerboard microdilution assay

SMILES	MIC80 (Candida albicans [1]) [µg/mL]	MIC80 (Candida albicans [2]) [µg/mL]	MIC80 (Candida albicans [3]) [µg/mL]	fractional inhibitory concentration index (FICI) (Candida albicans [4])	fractional inhibitory concentration index (FICI) (Candida albicans [5])	MIC80 (Candida albicans [6]) [µg/mL]	MIC80 (Candida albicans [7]) [µg/mL]	fractional inhibitory concentration index (FICI) (Candida albicans [8])	fractional inhibitory concentration index (FICI) (Candida albicans [9])	fractional inhibitory concentration index (FICI) (Candida albicans [10])	MIC80 (Candida albicans [11]) [µg/mL]	MIC80 (Candida albicans [12]) [µg/mL]	MIC80 (Candida albicans [13]) [µg/mL]	MIC80 (Candida albicans [14]) [µg/mL]	fractional inhibitory concentration index (FICI) (Candida albicans [15])	fractional inhibitory concentration index (FICI) (Candida albicans [16])	MIC80 (Candida albicans [17]) [µg/mL]	fractional inhibitory concentration index (FICI) (Candida albicans [18])	MIC80 (Candida albicans [19]) [µg/mL]	MIC80 (Candida albicans [20]) [µg/mL]	further results
O=C(CCc1ccc2c(c1)OCO2)NCc1ccc(-c2ccccc2F)cc1	0.125	0.031	0.063	0.066	0.017	0.031	> 64	0.032	0.032	0.063	0.63	0.125	0.031	0.031	0.009	0.066	0.125	0.017	> 64	0.25	fractional inhibitory concentration index (FICI) (Candida albicans [21]): 0.063; fractional inhibitory concentration index (FICI) (Candida albicans [22]): 0.01
COc1ccc2cc3[n+](cc2c1OC)CCc1cc2c(cc1-3)OCO2 [BERBERINE]	1	1	1	0.093	0.039	1	32	0.063	0.063	0.093	1	2	1	1	0.07	0.093	1	0.039	32	2	fractional inhibitory concentration index (FICI) (Candida albicans [21]): 0.093; fractional inhibitory concentration index (FICI) (Candida albicans [22]): 0.07
Cc1ccc(-c2ccc(CNC(=O)CCc3ccc4c(c3)OCO4)cc2)cc1	1	0.063	1	0.063	0.023	0.063	> 64	0.035	0.039	0.063	0.5	2	0.063	0.063	0.023	0.063	1	0.023	> 64	2	fractional inhibitory concentration index (FICI) (Candida albicans [21]): 0.063; fractional inhibitory concentration index (FICI) (Candida albicans [22]): 0.023
O=C(CCc1ccc2c(c1)OCO2)NCc1ccc(-c2ccc(F)cc2)cc1	0.25	0.063	0.125	0.064	0.017	0.031	> 64	0.032	0.032	0.063	0.063	0.25	0.031	0.063	0.01	0.064	0.125	0.018	> 64	0.25	fractional inhibitory concentration index (FICI) (Candida albicans [21]): 0.063; fractional inhibitory concentration index (FICI) (Candida albicans [22]): 0.01
